Reference: PubChem BioAssay (NCI)
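Dose response: 5 concentrations. Exposure: 48 h. Format: 96-well plates. Endpoint: linear interpolation; highest concentration if not reached. Abbreviation: GI50, concentration required for 50% inhibition of growth. TGI: concentration producing complete growth inhibition.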

Experiments:
Test in all cases: DTP human tumour cell line panel, 48 h
[1] = test system: HCC-2998 colon
[2] = test system: NCI-H23 lung
[3] = test system: M14 melanoma
[4] = test system: CCRF-CEM leukemia
[5] = test system: OVCAR-5 ovarian
[6] = test system: OVCAR-3 ovarian
[7] = test system: NCI-H226 lung
[8] = test system: OVCAR-4 ovarian
[9] = test system: NCI-H522 lung
[10] = test system: MCF7 breast
[11] = test system: 786-0 renal
[12] = test system: MALME-3M melanoma
[13] = test system: PC-3 prostate
[14] = test system: SK-MEL-2 melanoma
[15] = test system: SNB-19 CNS
[16] = test system: COLO 205 colon
[17] = test system: MDA-MB-231 breast
[18] = test system: EKVX NSCLC
[19] = test system: K-562 leukemia
[20] = test system: HOP-62 NSCLC
[21] = test system: RPMI-8226 leukemia
[22] = test system: SK-MEL-28 melanoma
[23] = test system: T-47D breast
[24] = test system: A498 renal
[25] = test system: BT-549 breast
[26] = test system: UACC-257 melanoma
[27] = test system: ACHN renal
[28] = test system: UO-31 renal
[29] = test system: HCT-15 colon
[30] = test system: SK-MEL-5 melanoma
[31] = test system: HT29 colon
[32] = test system: HOP-92 NSCLC
[33] = test system: HL-60(TB) leukemia
[34] = test system: RXF 393 renal
[35] = test system: LOX IMVI melanoma
[36] = test system: A549 NSCLC
[37] = test system: NCI/ADR-RES ovarian
[38] = test system: SF-295 CNS
[39] = test system: UACC-62 melanoma
[40] = test system: MDA-MB-435
[41] = test system: MOLT-4 leukemia
[42] = test system: U251 CNS
[43] = test system: NCI-H460 lung
[44] = test system: DU-145 prostate
[45] = test system: SN12C renal
[46] = test system: KM12 colon
[47] = test system: IGROV1 ovarian
[48] = test system: TK-10 renal
[49] = test system: SNB-75 CNS
[50] = test system: HS 578T breast
[51] = test system: CAKI-1 renal
[52] = test system: SF-539 CNS
[53] = test system: OVCAR-8 ovarian
[54] = test system: HCT-116 colon
[55] = test system: SW-620 colon
[56] = test system: SK-OV-3 ovarian
[57] = test system: SF-268 CNS

C[n+]1c(-c2ccccc2)c2cc(N)ccc2c2ccccc21
GI50 [1]: 2 µM
TGI [1]: 7.97 µM
GI50 [2]: 2.28 µM
TGI [2]: 12.2 µM
GI50 [3]: 8.94 µM
TGI [3]: 32.7 µM
GI50 [4]: 3.4 µM
TGI [4]: 29.5 µM
GI50 [5]: 25.4 µM
TGI [5]: > 100 µM
GI50 [6]: 3.48 µM
TGI [6]: 22.2 µM
GI50 [7]: 8.7 µM
TGI [7]: > 58.5 µM
GI50 [8]: 2.84 µM
TGI [8]: 16 µM
GI50 [9]: 3.91 µM
TGI [9]: > 100 µM
GI50 [10]: 2.43 µM
TGI [10]: 17.9 µM
GI50 [11]: 7.87 µM
TGI [11]: > 100 µM
GI50 [12]: 1.98 µM
TGI [12]: 6.63 µM
GI50 [13]: 4.45 µM
TGI [13]: 31.8 µM
GI50 [14]: 6.08 µM
TGI [14]: 32.9 µM
GI50 [15]: 2.09 µM
TGI [15]: 20.6 µM
GI50 [16]: 1.97 µM
TGI [16]: 6 µM
GI50 [17]: 13.3 µM
TGI [17]: 60 µM
GI50 [18]: 7.97 µM
TGI [18]: > 100 µM
GI50 [19]: 2.51 µM
TGI [19]: 28.4 µM
GI50 [20]: 7.13 µM
TGI [20]: 38.2 µM
GI50 [21]: 1.64 µM
TGI [21]: 9.75 µM
GI50 [22]: 2.19 µM
TGI [22]: 4.95 µM
GI50 [23]: 2.42 µM
TGI [23]: 14.9 µM
GI50 [24]: 19.6 µM
TGI [24]: > 79.5 µM
GI50 [25]: 2.44 µM
TGI [25]: 16.7 µM
GI50 [26]: 4.73 µM
TGI [26]: > 100 µM
GI50 [27]: > 63.7 µM
TGI [27]: > 100 µM
GI50 [28]: > 83.8 µM
TGI [28]: > 100 µM
GI50 [29]: > 100 µM
TGI [29]: > 100 µM
GI50 [30]: 2.11 µM
TGI [30]: 6.5 µM
GI50 [31]: 3.45 µM
TGI [31]: 22.3 µM
GI50 [32]: 2.57 µM
TGI [32]: 20 µM
GI50 [33]: 6.01 µM
TGI [33]: 25.1 µM
GI50 [34]: 26.3 µM
TGI [34]: > 100 µM
GI50 [35]: 4.16 µM
TGI [35]: > 70.7 µM
GI50 [36]: 5.1 µM
TGI [36]: > 47.7 µM
GI50 [37]: > 100 µM
TGI [37]: > 100 µM
GI50 [38]: 5.68 µM
TGI [38]: > 78.1 µM
GI50 [39]: 2 µM
TGI [39]: 5.03 µM
GI50 [40]: 3.22 µM
TGI [40]: 14.2 µM
GI50 [41]: 1.99 µM
TGI [41]: 20.5 µM
GI50 [42]: 1.39 µM
TGI [42]: > 44.3 µM
GI50 [43]: 3.2 µM
TGI [43]: 26.4 µM
GI50 [44]: 4.12 µM
TGI [44]: 57.3 µM
GI50 [45]: 2.13 µM
TGI [45]: 20.2 µM
GI50 [46]: 2.87 µM
TGI [46]: 14.8 µM
GI50 [47]: 5.78 µM
TGI [47]: > 44.2 µM
GI50 [48]: 8.69 µM
TGI [48]: > 59.5 µM
GI50 [49]: 1.28 µM
TGI [49]: 3.07 µM
GI50 [50]: 2.76 µM
TGI [50]: 12.3 µM
GI50 [51]: > 59.8 µM
TGI [51]: > 100 µM
GI50 [52]: 3.49 µM
TGI [52]: 15.5 µM
GI50 [53]: 12.4 µM
TGI [53]: > 100 µM
GI50 [54]: 2.75 µM
TGI [54]: 44.6 µM
GI50 [55]: 3.38 µM
TGI [55]: 50.5 µM
GI50 [56]: 11.7 µM
TGI [56]: > 91.9 µM
GI50 [57]: 0.534 µM
TGI [57]: 7.07 µM
